Experimental data: article PMC5684318, “Heterogeneity in the Drosophila gustatory receptor complexes that detect aversive compounds” (Nature Communications, 2017)

Molecular target: T1, GR22e/GR32a/GR66a (Drosophila melanogaster, UniProt P58953+Q9VKJ7+Q9VSH2)
T1 construct: full-length receptors co-expressed in Drosophila S2 cells (with EGFP) and in sweet GRNs via UAS/Gr64f-GAL4
T1 sequence (P58953 1-389): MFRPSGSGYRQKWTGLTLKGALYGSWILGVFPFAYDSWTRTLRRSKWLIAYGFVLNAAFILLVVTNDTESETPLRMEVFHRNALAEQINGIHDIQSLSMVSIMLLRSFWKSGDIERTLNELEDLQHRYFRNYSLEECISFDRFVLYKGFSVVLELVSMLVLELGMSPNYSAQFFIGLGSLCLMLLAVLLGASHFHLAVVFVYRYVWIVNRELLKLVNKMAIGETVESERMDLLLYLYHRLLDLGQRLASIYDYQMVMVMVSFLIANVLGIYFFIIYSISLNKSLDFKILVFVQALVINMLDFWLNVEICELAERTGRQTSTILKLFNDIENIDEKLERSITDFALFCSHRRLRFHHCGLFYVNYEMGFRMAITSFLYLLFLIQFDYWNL
T1 sequence (Q9VKJ7 1-461): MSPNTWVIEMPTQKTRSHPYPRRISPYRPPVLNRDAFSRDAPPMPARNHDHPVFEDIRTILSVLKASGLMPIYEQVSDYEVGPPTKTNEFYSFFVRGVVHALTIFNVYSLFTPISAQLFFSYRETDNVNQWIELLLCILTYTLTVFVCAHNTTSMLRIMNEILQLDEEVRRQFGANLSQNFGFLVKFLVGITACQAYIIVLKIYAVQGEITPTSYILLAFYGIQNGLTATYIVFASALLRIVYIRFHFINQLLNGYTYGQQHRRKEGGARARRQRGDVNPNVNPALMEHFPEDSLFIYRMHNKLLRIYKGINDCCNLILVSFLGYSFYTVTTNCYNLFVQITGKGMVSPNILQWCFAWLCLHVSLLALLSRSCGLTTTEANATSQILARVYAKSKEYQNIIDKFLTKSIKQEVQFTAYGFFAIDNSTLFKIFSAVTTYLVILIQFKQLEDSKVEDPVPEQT
T1 sequence (Q9VSH2 1-527): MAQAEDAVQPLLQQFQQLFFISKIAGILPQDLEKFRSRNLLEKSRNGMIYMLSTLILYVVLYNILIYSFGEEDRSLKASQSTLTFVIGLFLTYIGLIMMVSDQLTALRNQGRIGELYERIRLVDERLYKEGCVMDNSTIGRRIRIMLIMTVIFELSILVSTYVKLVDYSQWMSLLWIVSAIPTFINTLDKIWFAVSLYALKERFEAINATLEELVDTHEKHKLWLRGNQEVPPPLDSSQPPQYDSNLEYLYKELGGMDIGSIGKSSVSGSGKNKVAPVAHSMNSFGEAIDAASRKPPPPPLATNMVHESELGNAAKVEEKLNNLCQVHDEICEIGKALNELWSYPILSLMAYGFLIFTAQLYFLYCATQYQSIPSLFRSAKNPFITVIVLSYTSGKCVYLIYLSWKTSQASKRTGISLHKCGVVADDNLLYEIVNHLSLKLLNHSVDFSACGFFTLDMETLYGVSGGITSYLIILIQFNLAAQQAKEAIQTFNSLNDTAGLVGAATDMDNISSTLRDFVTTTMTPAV
Test: whole-cell patch clamp of S2 cells; tip recording of L-type sensilla misexpressing the receptors
Assay type: cell-based
Settings: agonist; S2 cells pH 7.4, room temperature, voltage ramp -80 to +80 mV; sensilla 1 mM

Row | Structure (SMILES) | whole-cell patch clamp of S2 cells; tip recording of L-type sensilla misexpressi
1 | COc1ccc2cc3[n+](cc2c1OC)CCc1cc2c(cc1-3)OCO2 [BER, berberine] | both Gr combinations confer sensitivity to LOB, BER, and DEN on S2 cells
2 | CC[N+](CC)(CC(=O)Nc1c(C)cccc1C)Cc1ccccc1 [DEN, denatonium] | both Gr combinations confer sensitivity to LOB, BER, and DEN on S2 cells
3 | CN1[C@@H](CC(=O)c2ccccc2)CCC[C@H]1C[C@H](O)c1ccccc1 [LOB, lobeline] | both Gr combinations confer sensitivity to LOB, BER, and DEN on S2 cells
4 | O=C1C[C@@H]2OCC=C3CN4CC[C@]56c7ccccc7N1[C@H]5[C@H]2[C@H]3C[C@H]46 [STR, strychnine] | GR22e/GR32a/GR66a-expressing S2 cells also respond to STR
